Experimental data as given in patent US5792635A, “Method of inhibiting the sodium/proton exchanger NHE3 and method of inhibiting growth by administering squalamine” (priority 1995, dated 1998).
“Also recorded” adds a separate entry of the source.

What was measured:
[1] = system: rabbit NHE1; test: Inhibition of NHE1 in PS120 fibroblasts transfected with rabbit NHE1, internal pH by BCECF-AM; assay type: cell-based; conditions: 5 μg/ml; acid-preloaded; FIG. 2A
Method: (§1) PS120 fibroblasts transfected with rabbit or human NHE1 were grown as described above.

[2] = target: rabbit NHE3 (Oryctolagus cuniculus, UniProt P26432); conditions: 5 μg/ml
Sequence of rabbit NHE3 (P26432 30-832): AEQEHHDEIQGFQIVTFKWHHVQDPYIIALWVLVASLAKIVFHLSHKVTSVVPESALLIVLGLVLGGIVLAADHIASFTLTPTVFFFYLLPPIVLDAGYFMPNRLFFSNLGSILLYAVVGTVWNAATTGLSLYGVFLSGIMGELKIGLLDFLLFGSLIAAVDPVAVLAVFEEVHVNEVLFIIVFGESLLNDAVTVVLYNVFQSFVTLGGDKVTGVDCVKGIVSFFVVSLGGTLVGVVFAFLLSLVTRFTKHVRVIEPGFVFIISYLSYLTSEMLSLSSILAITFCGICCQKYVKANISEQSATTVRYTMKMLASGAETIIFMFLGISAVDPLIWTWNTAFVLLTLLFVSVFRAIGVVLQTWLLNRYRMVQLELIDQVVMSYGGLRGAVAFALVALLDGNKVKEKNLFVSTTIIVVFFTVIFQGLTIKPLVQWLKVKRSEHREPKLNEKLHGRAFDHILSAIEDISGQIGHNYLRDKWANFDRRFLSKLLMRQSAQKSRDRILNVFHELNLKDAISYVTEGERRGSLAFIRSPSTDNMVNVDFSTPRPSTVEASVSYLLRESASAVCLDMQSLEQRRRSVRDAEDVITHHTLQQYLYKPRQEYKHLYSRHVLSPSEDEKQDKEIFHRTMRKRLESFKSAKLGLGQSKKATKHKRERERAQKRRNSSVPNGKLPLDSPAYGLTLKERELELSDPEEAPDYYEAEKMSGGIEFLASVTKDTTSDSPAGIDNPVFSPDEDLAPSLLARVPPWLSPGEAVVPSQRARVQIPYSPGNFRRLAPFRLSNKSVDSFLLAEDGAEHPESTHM
Method: Internal pH was measured either following acid loading or in the absence of an acid-loading challenge, with the results shown in FIGS. 1A and 1B.
Specifically, PS120 fibroblasts transfected with rabbit NHE3 were grown in supplemented Dulbecco's-modified Eagle's medium as described by Levine et al., J. Biol. Chem. 268, 1993, 25527-25535. […] For cells not acid-preloaded, the actual internal pH value was monitored as a function of time following addition of squalamine, with the results depicted in FIG. 1B.
PS120 fibroblasts transfected with rabbit NHE3 were grown and acid preloaded by exposure to 40 mM NH4 Cl as described above in conjunction with FIGS. 1A and 1B. Internal cellular pH changes expressed as the rate of pH recovery as a function of restored extracellular sodium ion concentration following exposure to 10 μg/ml of the compound were assayed with the fluorescent dye BCECF-AM as described above.

[3] = system: B16; test: Cytostatic activity against B16 in culture; assay type: cell-based, murine; conditions: except at very high concentrations
[4] = system: human coronary artery smooth muscle; test: Proliferation of human coronary artery smooth muscle in vitro; assay type: cell-based; conditions: FIG. 15
Description: Aminosterols of the invention may also have utility in inhibiting the growth factor mediated proliferation of smooth muscle within the artery. Following coronary angioplasty, reocclusion commonly occurs, secondary to reparative proliferation of the vascular smooth muscle within the wall of the surgically manipulated blood vessel. This process generally takes place over the course of 7-10 days. To evaluate whether an agent could prevent the growth factor mediated proliferation of smooth muscle within the artery, compound 1436 was evaluated in vitro for its effect on the proliferation of human coronary artery smooth muscle. Results for compound 1436 are shown in FIG. 13, and those for squalamine are shown in FIG. 14, with FIG. 15 being a composite logarithmic plot.

[5] = system: human umbilical venous endothelial cells; test: LPS-/TNF-α-induced neutrophil adherence; assay type: cell-based; conditions: 10 μg, 1.0 μg, or 0.1 μg; three different subjects
Description: Methods 109, 1988, 175-184.

[6] = system: human NHE1; test: Inhibition of NHE1 in PS120 fibroblasts transfected with human NHE1, internal pH by BCECF-AM; assay type: cell-based; conditions: 5 μg/ml; acid-preloaded; FIG. 2B
Method: as §1

[7] = system: vitelline capillaries of 3- to 5-day chick embryo; test: Chick embryo vitelline capillary regression assay; assay type: in vivo
Summary of the method: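 Compounds applied to 3- to 5-day chick embryos in 0.1 ml of 15% Ficol 400 in PBS. Regression of vitelline capillaries, seen as pinching-off of capillary loops into enclosed sacs, was scored visually after 60 minutes.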

[8] = system: Xenopus tadpoles; test: Tadpole assay; conditions: 10 μg/ml
[9] = system: B16 melanoma; test: Synergistic inhibition of tumor growth, B16 melanoma in mice; assay type: in vivo, mouse; conditions: squalamine 15 mg/kg/day; compound 1436 tolerable schedule
Method: Based on the idea that tumor growth involves both the clonal expansion of a malignant cell along with the development of a supporting vascular supply, a combination of compound 1436 with squalamine was tested to determine whether it would achieve a synergistic effect on solid tumor growth. This concept was evaluated in the B16 melanoma model.
Animals were implanted with B16 melanoma followed by treatment with compound 1436 or 1256 administered in a combined schedule or separately. […] Thus, a combination of these two compounds achieves a therapeutic benefit in tumors dependent on neovascularization that may prevent metastatic spread.

[10] = system: human T-cells; test: Inhibition of PHA-stimulated human lymphocytes; assay type: cell-based; conditions: 10 μg/ml
Description: Results are tabulated below.

[11] = system: melanoma 1205Lu; test: Suppression of growth of human melanoma 1205Lu in RAG-1 mice; assay type: in vivo, mouse (human tumor)
Description: As apparent from FIG. 5, melanoma 1205Lu develops aggressively in RAG-1 mice after implantation.

[12] = system: bacteria, fungi and protozoa; conditions: in words; cited from earlier work
[13] = system: B16 melanoma; test: Suppression of growth of B16 melanoma in C57B mice; assay type: in vivo, mouse
Method: The growth of B16 melanoma in C57B mice is dependent upon neovascularization.
Using the growth of B16 melanoma cells in C57B mice, a recognized model for the evaluation of inhibitors of angiogenesis on the growth of cancers, the effects of subcutaneous, intraperitoneal and oral administration of squalamine were evaluated.

[14] = system: chick chorioallantoic membrane; test: Chorioallantoic membrane (CAM) model, inhibition of capillary growth; assay type: in vivo
Description: The growing capillaries within the chorioallantoic membrane model (CAM model) have been used as a system in which to evaluate the effect of agents on their potential to inhibit new vessel growth. Neovascularization occurs most aggressively over the first week of embryonic development. Thereafter capillary growth is characterized by principally "elongation" rather than "de novo" formation.
In the standard assay, agents are applied locally to a region of the embryo over which neovascularization will occur. Agents are assessed by their ability to inhibit this process, as evaluated by visual examination about 7 days after application. […] The assay utilized is described in detail in Auerbach et al., Pharm. Ther. 51, 1991, 1-11.

## CC(C)[C@@H](CC[C@@H](C)[C@H]1CC[C@H]2[C@@H]3[C@H](O)C[C@H]4C[C@@H](NCCCNCCCCN)CC[C@]4(C)[C@H]3CC[C@]12C)OS(=O)(=O)O [Squalamine]
[1]
  inhibitory activity against rabbit NHE1: no inhibitory activity
[2]; FIG. 1A, 1B
  inhibition of NHE3 (Km and Vmax): inhibited NHE3 with respect to proton concentration at both Km and Vmax levels
[2]; not acid-preloaded, FIG. 1B
  resting internal pH: the resting pH of these cells was also inhibited
[3]
  cytostatic activity against B16 in culture: minimal cytostatic activity
[4]
  suppression of growth of human coronary artery smooth muscle: suppress in vitro the growth of human coronary artery smooth muscle
[5]
  inhibition of neutrophil adherence: no inhibition
[6]
  inhibitory activity against human NHE1: no inhibitory activity
[7]; 3- to 5-day chick embryos
  effect on vitelline capillaries: disrupt vitelline capillaries
[7]; 3-day chick embryo
  lag period before constriction between capillary and secondary vessels: around 15 minutes
[7]; Table 5
  activity in vitelline capillary regression assay: especially active
[7]; chick embryo
  embryonic heart beat: continued to beat vigorously
  hemorrhage: No hemorrhage was seen
[7]; chick embryo, microscopic
  hemolysis: absence of hemolysis
[8]
  death / lethality time: ≤ 2 h
[8]; stage 59-60 Xenopus
  observed response in tadpole: blood flow through the capillaries of the tail shut down; also recorded: unaltered blood flow through the fine capillaries of the hands and feet; also recorded: common vascular occlusive effect; also recorded: Vascular occlusion in fine capillaries of tail. No effect on vascular flow through hands or feet
[9]
  effect of single agent versus combination: Neither administration of squalamine at 15 mg/kg/day nor compound 1436 alone in a tolerable schedule could achieve this effect
[10]
  inhibition of blast transformation, in words: Some effect
[11]; 10, 20, 40 mg/kg/d, FIG. 5
  suppression of melanoma 1205Lu growth: suppress the growth of melanoma 1205Lu in RAG-1 mice in a dose-dependent fashion
[11]; RAG-1 mice
  reversibility after cessation of treatment: reversible
[12]
  antibiotic activity: broad-spectrum antibiotic, killing bacteria, fungi and protozoa
[13]; B16-bearing C57B mice
  body weight and hematologic parameters: no significant depression
[13]; intraperitoneal, FIG. 4B
  suppression of B16 tumor volume: dose-dependent suppression of tumor volume
[13]; oral, FIG. 4C
  suppression of B16 tumor volume: dose-dependent suppression of tumor volume
[13]; subcutaneous, FIG. 4A
  suppression of B16 tumor volume: dose-dependent suppression of tumor volume
[14]; 13-day embryo, 5.0 μg applied
  positive (fraction printed under Percentage positive): 0/26
[14]; in words
  anti-angiogenic activity in CAM: potent but specific inhibitory activity, equal in potency to the most active compounds described to date in the literature
[14]; ten times 0.65 μg, 13-day old chick
  inhibitory effect on 13-day chick: no inhibitory effect
